From ChEMBL document CHEMBL4715862, “Anti-HIV Tigliane Diterpenoids from Wikstroemia scytophylla” (J Nat Prod, 2020)

Assays:
[1] = Cytotoxicity against human MT4 cells assessed as reduction in cell viability after 48 hrs by CellTiter-Glo assay; format: cell-based
[2] = system: Human immunodeficiency virus 1; experiment: Antiviral activity against HIV-1 NL4-3 infected in human MT4 cells assessed as reduction in p24 gag protein expression incubated for 48 hrs by ELISA; format: functional, organism-based; details: Human immunodeficiency virus 1, NL4-3, MT4, 48 h
[3] = Selectivity ratio of CC50 for cytotoxicity against human MT4 cells to IC50 for antiviral activity against HIV-1 NL4-3 infected in human MT4 cells; format: toxicity, cell-based; details: read-out: Ratio CC50/IC50

CCCCCCCC(=O)O[C@@]12[C@H](OC(=O)c3ccccc3)[C@@H](C)[C@]3(O)[C@@H]4C=C(C)C(=O)[C@@]4(O)[C@H](O)C(CO)=C[C@H]3[C@@H]1C2(C)C
CC50 at 48 h [1]: > 164 nM | IC50 [2]: 12.8 nM

CCCCCCCC(=O)O[C@@]12[C@H](OC(=O)c3ccccc3)[C@@H](C)[C@@]3(O)[C@H]([C@@H]1C2(C)C)[C@@H](OO)C(CO)=C[C@]1(O)C(=O)C(C)=C[C@@H]31
selectivity ratio [3]: < 5

CCCCCCCC(=O)O[C@@]12[C@H](OC(=O)c3ccccc3)[C@@H](C)[C@@]3(O)C(=C[C@](O)(CO)C[C@]4(O)C(=O)C(C)=C[C@@H]34)[C@@H]1C2(C)C
CC50 at 48 h [1]: > 164 nM | IC50 [2]: > 164 nM

CCCCCCCC(=O)O[C@@]12[C@H](OC(=O)CCCCC)[C@@H](C)[C@@]3(O)[C@@H](C(=O)C(CO)=C[C@]4(O)C(=O)C(C)=C[C@@H]34)[C@@H]1C2(C)C
CC50 at 48 h [1]: > 164 nM | IC50 [2]: > 164 nM

CCCCCCCC(=O)O[C@@]12[C@H](OC(=O)c3ccccc3)[C@@H](C)[C@@]3(O)[C@@H](C(=O)C(CO)=C[C@]4(O)C(=O)C(C)=C[C@@H]34)[C@@H]1C2(C)C
CC50 at 48 h [1]: > 164 nM | IC50 [2]: 3.8 nM

CCCCCCCC(=O)O[C@@]12[C@H](OC(=O)c3ccccc3)[C@@H](C)[C@@]3(O)[C@H]([C@@H]1C2(C)C)[C@@H](O)C(CO)=C[C@]1(O)C(=O)C(C)=C[C@@H]31
CC50 at 48 h [1]: > 164 nM | IC50 [2]: > 164 nM

C=C(C)[C@]12C[C@@H](COC(=O)c3ccccc3)[C@@]34O[C@]5(O[C@@H]1[C@@H]3[C@@H]1O[C@]1(CO)[C@@H](O)[C@@]1(O)[C@H]4[C@H]([C@H](C)[C@@H]1OC(=O)c1ccccc1)[C@H](C)CCCCCC[C@H]5O)O2
CC50 at 48 h [1]: > 5 nM | IC50 [2]: 0.07 nM
